Data as given in PubChem BioAssay AID1963840 (Molecular Pharmacology Branch, DTP, NCI, 2024).

Tested on: 695427-040-R-J1-PDC complex spheroid viability
Assay: Anticancer human tumor 695427-040-R-J1-PDC patient-derived colon adenocarcinoma cell line growth inhibition [POLQ]
Details: for IC50: curve of first compound; for viability, T/C: stronger effect = lower value
Outline: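 Three-cell-type spheroids modelling solid tumor plus stroma served as the readout system; POL inhibitors were tested individually and in combination, concentration ranges set by clinical Cmax where known.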

[1] = second compound 0.0316 µM, first compound 0.00316 µM
[2] = second compound 0.0316 µM, first compound 0.01 µM
[3] = second compound 0.0316 µM, first compound 0.0316 µM
[4] = second compound 0.0316 µM, first compound 0.1 µM
[5] = second compound 0.1 µM, first compound 0.00316 µM
[6] = second compound 0.1 µM, first compound 0.01 µM
[7] = second compound 0.1 µM, first compound 0.0316 µM
[8] = second compound 0.1 µM, first compound 0.1 µM
[9] = second compound 0.316 µM, first compound 0.00316 µM
[10] = second compound 0.316 µM, first compound 0.01 µM
[11] = second compound 0.316 µM, first compound 0.0316 µM
[12] = second compound 0.316 µM, first compound 0.1 µM
[13] = second compound 1 µM, first compound 0.00316 µM
[14] = second compound 1 µM, first compound 0.01 µM
[15] = second compound 1 µM, first compound 0.0316 µM
[16] = second compound 1 µM, first compound 0.1 µM
[17] = second compound 3.16 µM, first compound 0.00316 µM
[18] = second compound 3.16 µM, first compound 0.01 µM
[19] = second compound 3.16 µM, first compound 0.0316 µM
[20] = second compound 3.16 µM, first compound 0.1 µM
[21] = second compound 10 µM, first compound 0.00316 µM
[22] = second compound 10 µM, first compound 0.01 µM
[23] = second compound 10 µM, first compound 0.0316 µM
[24] = second compound 10 µM, first compound 0.1 µM
[25] = second compound 0.0316 µM, first compound 0.316 µM
[26] = second compound 0.0316 µM, first compound 1 µM
[27] = second compound 0.1 µM, first compound 0.316 µM
[28] = second compound 0.1 µM, first compound 1 µM
[29] = second compound 0.316 µM, first compound 0.316 µM
[30] = second compound 0.316 µM, first compound 1 µM
[31] = second compound 1 µM, first compound 0.316 µM
[32] = second compound 1 µM, first compound 1 µM
[33] = second compound 3.16 µM, first compound 0.316 µM
[34] = second compound 3.16 µM, first compound 1 µM
[35] = second compound 10 µM, first compound 0.316 µM
[36] = second compound 10 µM, first compound 1 µM
[37] = second compound 0.0316 µM, first compound 3.16 µM
[38] = second compound 0.0316 µM, first compound 10 µM
[39] = second compound 0.1 µM, first compound 3.16 µM
[40] = second compound 0.1 µM, first compound 10 µM
[41] = second compound 0.316 µM, first compound 3.16 µM
[42] = second compound 0.316 µM, first compound 10 µM
[43] = second compound 1 µM, first compound 3.16 µM
[44] = second compound 1 µM, first compound 10 µM
[45] = second compound 3.16 µM, first compound 3.16 µM
[46] = second compound 3.16 µM, first compound 10 µM
[47] = second compound 10 µM, first compound 3.16 µM
[48] = second compound 10 µM, first compound 10 µM
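Note: spheroids exposed to compounds for seven days.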
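Throughout, for viability, T/C: 100% = DMSO vehicle control viability.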

CC[C@@]1(O)C(=O)OCc2c1cc1n(c2=O)Cc2cc3c(CN(C)C)c(O)ccc3nc2-1 + COC1C(OC(N)=O)C(O)C(Oc2ccc3c(O)c(NC(=O)c4ccc(O)c(CC=C(C)C)c4)c(=O)oc3c2C)OC1(C)C
IC50 (second compound 0.0316 µM): > 100 nM
IC50 (second compound 0.1 µM): > 100 nM
IC50 (second compound 0.316 µM): > 100 nM
IC50 (second compound 1 µM): > 100 nM
IC50 (second compound 3.16 µM): > 100 nM
IC50 (second compound 10 µM): > 100 nM
viability, T/C (second compound 0.0316 µM, first compound 0.000316 µM): 103%
viability, T/C (second compound 0.0316 µM, first compound 0.001 µM): 96.8%
viability, T/C [1]: 97.8%
viability, T/C [2]: 103%
viability, T/C [3]: 100%
viability, T/C [4]: 95.1%
viability, T/C (second compound 0.1 µM, first compound 0.000316 µM): 116%
viability, T/C (second compound 0.1 µM, first compound 0.001 µM): 104%
viability, T/C [5]: 101%
viability, T/C [6]: 102%
viability, T/C [7]: 104%
viability, T/C [8]: 99.5%
viability, T/C (second compound 0.316 µM, first compound 0.000316 µM): 102%
viability, T/C (second compound 0.316 µM, first compound 0.001 µM): 102%
viability, T/C [9]: 106%
viability, T/C [10]: 104%
viability, T/C [11]: 105%
viability, T/C [12]: 92.4%
viability, T/C (second compound 1 µM, first compound 0.000316 µM): 108%
viability, T/C (second compound 1 µM, first compound 0.001 µM): 102%
viability, T/C [13]: 99.6%
viability, T/C [14]: 98.1%
viability, T/C [15]: 106%
viability, T/C [16]: 93.1%
viability, T/C (second compound 3.16 µM, first compound 0.000316 µM): 97.2%
viability, T/C (second compound 3.16 µM, first compound 0.001 µM): 101%
viability, T/C [17]: 103%
viability, T/C [18]: 97.2%
viability, T/C [19]: 105%
viability, T/C [20]: 86%
viability, T/C (second compound 10 µM, first compound 0.000316 µM): 107%
viability, T/C (second compound 10 µM, first compound 0.001 µM): 103%
viability, T/C [21]: 105%
viability, T/C [22]: 106%
viability, T/C [23]: 105%
viability, T/C [24]: 93%

CCc1c2c(nc3ccc(O)cc13)-c1cc3c(c(=O)n1C2)COC(=O)[C@]3(O)CC + COC1C(OC(N)=O)C(O)C(Oc2ccc3c(O)c(NC(=O)c4ccc(O)c(CC=C(C)C)c4)c(=O)oc3c2C)OC1(C)C
IC50 (second compound 0.0316 µM): 976 nM
IC50 (second compound 0.1 µM): 893 nM
IC50 (second compound 0.316 µM): > 1000 nM
IC50 (second compound 1 µM): 985 nM
IC50 (second compound 3.16 µM): 809 nM
IC50 (second compound 10 µM): 656 nM
viability, T/C [1]: 97.5%
viability, T/C [2]: 89%
viability, T/C [3]: 82.6%
viability, T/C [4]: 78.9%
viability, T/C [25]: 68.2%
viability, T/C [26]: 48.1%
viability, T/C [5]: 102%
viability, T/C [6]: 91.4%
viability, T/C [7]: 86.9%
viability, T/C [8]: 78.4%
viability, T/C [27]: 68.4%
viability, T/C [28]: 46.9%
viability, T/C [9]: 107%
viability, T/C [10]: 94.4%
viability, T/C [11]: 78.8%
viability, T/C [12]: 78.3%
viability, T/C [29]: 68.8%
viability, T/C [30]: 50.5%
viability, T/C [13]: 97.3%
viability, T/C [14]: 97.5%
viability, T/C [15]: 81.7%
viability, T/C [16]: 78.9%
viability, T/C [31]: 69.1%
viability, T/C [32]: 48.4%
viability, T/C [17]: 97%
viability, T/C [18]: 90.9%
viability, T/C [19]: 87.7%
viability, T/C [20]: 75.8%
viability, T/C [33]: 63.2%
viability, T/C [34]: 47%
viability, T/C [21]: 98.7%
viability, T/C [22]: 84.6%
viability, T/C [23]: 85.7%
viability, T/C [24]: 74.5%
viability, T/C [35]: 64.2%
viability, T/C [36]: 42%

Nc1ccn(C2OC(CO)C(O)C2(F)F)c(=O)n1 (stereo not drawn) + COC1C(OC(N)=O)C(O)C(Oc2ccc3c(O)c(NC(=O)c4ccc(O)c(CC=C(C)C)c4)c(=O)oc3c2C)OC1(C)C
IC50 (second compound 0.0316 µM): > 10000 nM
IC50 (second compound 0.1 µM): > 10000 nM
IC50 (second compound 0.316 µM): > 10000 nM
IC50 (second compound 1 µM): > 10000 nM
IC50 (second compound 3.16 µM): > 10000 nM
IC50 (second compound 10 µM): > 10000 nM
viability, T/C [3]: 82%
viability, T/C [4]: 81.5%
viability, T/C [25]: 75.1%
viability, T/C [26]: 72.2%
viability, T/C [37]: 63.9%
viability, T/C [38]: 55.2%
viability, T/C [7]: 91.1%
viability, T/C [8]: 82.6%
viability, T/C [27]: 73.1%
viability, T/C [28]: 70%
viability, T/C [39]: 68.3%
viability, T/C [40]: 50.5%
viability, T/C [11]: 96.2%
viability, T/C [12]: 78.5%
viability, T/C [29]: 76.6%
viability, T/C [30]: 70.2%
viability, T/C [41]: 63.5%
viability, T/C [42]: 47.6%
viability, T/C [15]: 92%
viability, T/C [16]: 84%
viability, T/C [31]: 71.8%
viability, T/C [32]: 70%
viability, T/C [43]: 62.5%
viability, T/C [44]: 48.6%
viability, T/C [19]: 89.2%
viability, T/C [20]: 81.9%
viability, T/C [33]: 72.5%
viability, T/C [34]: 67%
viability, T/C [45]: 63.2%
viability, T/C [46]: 52.1%
viability, T/C [23]: 93.1%
viability, T/C [24]: 82.3%
viability, T/C [35]: 75.3%
viability, T/C [36]: 73.1%
viability, T/C [47]: 66.4%
viability, T/C [48]: 52.1%

O=c1[nH]cc(F)c(=O)[nH]1 + COC1C(OC(N)=O)C(O)C(Oc2ccc3c(O)c(NC(=O)c4ccc(O)c(CC=C(C)C)c4)c(=O)oc3c2C)OC1(C)C
IC50 (second compound 0.0316 µM): > 10000 nM
IC50 (second compound 0.1 µM): > 10000 nM
IC50 (second compound 0.316 µM): > 10000 nM
IC50 (second compound 1 µM): > 10000 nM
IC50 (second compound 3.16 µM): > 10000 nM
IC50 (second compound 10 µM): > 10000 nM
viability, T/C [3]: 95.8%
viability, T/C [4]: 101%
viability, T/C [25]: 111%
viability, T/C [26]: 103%
viability, T/C [37]: 103%
viability, T/C [38]: 107%
viability, T/C [7]: 106%
viability, T/C [8]: 107%
viability, T/C [27]: 108%
viability, T/C [28]: 106%
viability, T/C [39]: 112%
viability, T/C [40]: 97.2%
viability, T/C [11]: 114%
viability, T/C [12]: 106%
viability, T/C [29]: 112%
viability, T/C [30]: 99.5%
viability, T/C [41]: 109%
viability, T/C [42]: 96.4%
viability, T/C [15]: 104%
viability, T/C [16]: 101%
viability, T/C [31]: 108%
viability, T/C [32]: 101%
viability, T/C [43]: 97.6%
viability, T/C [44]: 96.8%
viability, T/C [19]: 109%
viability, T/C [20]: 97.7%
viability, T/C [33]: 99.2%
viability, T/C [34]: 105%
viability, T/C [45]: 106%
viability, T/C [46]: 97.9%
viability, T/C [23]: 99.6%
viability, T/C [24]: 97.1%
viability, T/C [35]: 105%
viability, T/C [36]: 101%
viability, T/C [47]: 98.3%
viability, T/C [48]: 101%
